These results are taken from US20050266509A1, “Interaction of NMDA receptor with protein tyrosine phosphatase” (AGY Therapeutics, Inc., priority 2003, published 2005).

A word on the IC50: it is the midpoint of a concentration-inhibition curve. Lower therefore signals higher potency.

What all share (assay type): biochemical
One assay addresses T1, CD45 (Homo sapiens, UniProt P08575).
T1 sequence (P08575 26-1306): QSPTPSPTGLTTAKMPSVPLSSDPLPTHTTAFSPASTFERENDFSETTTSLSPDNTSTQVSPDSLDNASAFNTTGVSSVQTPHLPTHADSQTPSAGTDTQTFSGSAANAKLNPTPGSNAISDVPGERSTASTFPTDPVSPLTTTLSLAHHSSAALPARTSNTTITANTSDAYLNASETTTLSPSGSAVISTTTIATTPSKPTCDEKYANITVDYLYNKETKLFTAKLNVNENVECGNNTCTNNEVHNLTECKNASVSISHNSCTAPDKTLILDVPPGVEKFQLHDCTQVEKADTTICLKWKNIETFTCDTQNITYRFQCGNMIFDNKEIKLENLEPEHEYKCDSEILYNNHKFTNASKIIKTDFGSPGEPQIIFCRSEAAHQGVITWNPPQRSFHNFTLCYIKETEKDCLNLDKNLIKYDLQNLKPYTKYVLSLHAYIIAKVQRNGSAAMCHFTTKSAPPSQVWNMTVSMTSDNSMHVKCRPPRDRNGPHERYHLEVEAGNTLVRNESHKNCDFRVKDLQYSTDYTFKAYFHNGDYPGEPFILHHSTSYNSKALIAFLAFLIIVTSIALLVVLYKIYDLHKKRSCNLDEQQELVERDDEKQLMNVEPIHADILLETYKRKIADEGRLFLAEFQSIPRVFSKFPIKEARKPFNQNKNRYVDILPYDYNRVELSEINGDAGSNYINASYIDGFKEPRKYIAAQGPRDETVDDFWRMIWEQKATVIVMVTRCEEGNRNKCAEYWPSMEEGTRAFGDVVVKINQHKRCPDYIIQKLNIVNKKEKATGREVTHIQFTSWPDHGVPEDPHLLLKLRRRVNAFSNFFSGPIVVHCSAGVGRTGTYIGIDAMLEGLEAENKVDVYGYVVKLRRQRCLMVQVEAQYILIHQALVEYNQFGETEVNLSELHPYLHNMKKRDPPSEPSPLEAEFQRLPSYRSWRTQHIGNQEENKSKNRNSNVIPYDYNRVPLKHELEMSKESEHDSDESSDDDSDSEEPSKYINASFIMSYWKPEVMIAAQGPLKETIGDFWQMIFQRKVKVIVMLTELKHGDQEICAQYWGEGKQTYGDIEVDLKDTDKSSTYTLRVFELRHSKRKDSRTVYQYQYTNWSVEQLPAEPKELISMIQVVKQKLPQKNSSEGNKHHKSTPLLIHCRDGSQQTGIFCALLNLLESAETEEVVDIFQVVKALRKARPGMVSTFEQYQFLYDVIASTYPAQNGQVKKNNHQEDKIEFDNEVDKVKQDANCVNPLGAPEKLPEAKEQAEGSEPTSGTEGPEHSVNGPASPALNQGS
As to the kind of experiment: FRET phosphatase assay, CD45. As for the experimental part:
(§1) For the enzyme activity assay, 2.5 μl of compound, 12.5 μl of enzyme, and 10 μl of substrate (separated by air gaps) are added to columns 3 through 24 by the Biomek FX in a single dispense. After the dispense, the tips are washed with DMSO and water for re-use between each quadrant. Once the assay plates are set up, they are incubated at 27° C. for 45 minutes. Then 20 μl of detection buffer is added to stop the reaction and to allow the Europium antibody (Eu-Ab) and streptavidin-APC to bind to the substrate.
(§2) The plates are then placed in the plate reader, an Analyst HT. Excitation light at 360 nm is used to excite the Europium antibody with an emission at 620 nm. Fluorescence resonance energy transfer (FRET) from Eu-Ab to APC will only occur when they are in close proximity. Therefore, when an APC emission is observed at 665 nm the enzyme has been inhibited from removing the phosphate group from the substrate. The FRET assay is time-resolved (TR), where there is a delay between excitation light and collection of emission signals. This reduces the amount of stray light created by short-lived fluorescing molecules. The Analyst HT measures APC and Europium emission signals and calculates the ratio between the two intensities. Typical intensities for the Europium is ˜2000 and APC is ˜600.
(§3) The following compounds were tested by FRET against the listed phosphatases, and the IC50 were obtained. […]

The next assay addresses PTPB (Homo sapiens, UniProt P23467). Put plainly: FRET phosphatase assay, PTPB. As for the experimental part:
as §1, §2, §3

Another assay has as its target T2, PTPIB (Homo sapiens, UniProt P18031).
T2 sequence (P18031 1-435): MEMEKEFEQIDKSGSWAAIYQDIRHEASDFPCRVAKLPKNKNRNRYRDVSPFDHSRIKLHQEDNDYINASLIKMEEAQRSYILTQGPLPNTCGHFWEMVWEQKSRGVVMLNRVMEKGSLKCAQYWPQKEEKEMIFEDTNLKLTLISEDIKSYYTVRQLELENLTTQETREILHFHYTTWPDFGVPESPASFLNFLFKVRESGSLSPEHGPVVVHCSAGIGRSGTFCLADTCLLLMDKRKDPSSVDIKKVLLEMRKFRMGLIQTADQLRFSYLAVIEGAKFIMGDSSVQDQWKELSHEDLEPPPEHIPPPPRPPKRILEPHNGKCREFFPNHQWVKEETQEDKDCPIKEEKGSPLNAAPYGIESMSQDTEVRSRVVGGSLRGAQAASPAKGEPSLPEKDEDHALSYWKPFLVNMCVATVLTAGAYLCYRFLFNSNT
As to the kind of experiment: FRET phosphatase assay, PTPIB. On the procedure:
as §1, §2, §3

The target of another assay is YOP51 (Yersinia enterocolitica, UniProt P15273). Put plainly: FRET phosphatase assay, YOP51. As for the experimental part:
as §1, §2, §3

Sequence of YOP51 (P15273 whole entry): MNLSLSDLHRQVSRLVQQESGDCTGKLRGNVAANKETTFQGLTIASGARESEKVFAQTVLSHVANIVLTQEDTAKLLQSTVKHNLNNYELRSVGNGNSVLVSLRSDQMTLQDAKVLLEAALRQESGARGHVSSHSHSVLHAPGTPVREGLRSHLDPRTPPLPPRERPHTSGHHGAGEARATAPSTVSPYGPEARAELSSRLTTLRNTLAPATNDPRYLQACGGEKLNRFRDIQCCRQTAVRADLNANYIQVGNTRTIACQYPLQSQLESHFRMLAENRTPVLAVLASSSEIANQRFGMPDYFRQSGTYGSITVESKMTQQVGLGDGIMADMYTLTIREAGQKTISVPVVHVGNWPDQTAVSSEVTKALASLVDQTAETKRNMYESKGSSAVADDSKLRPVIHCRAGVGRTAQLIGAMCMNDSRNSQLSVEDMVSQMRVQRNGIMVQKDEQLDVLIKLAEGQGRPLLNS
Sequence of PTPB (P23467 1643-1997 limits assumed): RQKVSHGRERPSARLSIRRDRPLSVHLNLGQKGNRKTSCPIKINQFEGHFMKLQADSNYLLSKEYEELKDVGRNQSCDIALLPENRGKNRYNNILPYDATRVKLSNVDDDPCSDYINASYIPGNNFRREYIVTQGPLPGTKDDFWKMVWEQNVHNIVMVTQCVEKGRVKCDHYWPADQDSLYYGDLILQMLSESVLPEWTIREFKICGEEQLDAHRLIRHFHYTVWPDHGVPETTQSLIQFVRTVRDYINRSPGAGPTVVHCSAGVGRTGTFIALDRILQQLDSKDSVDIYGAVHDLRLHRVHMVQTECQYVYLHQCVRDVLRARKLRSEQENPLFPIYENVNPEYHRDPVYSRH

As to `CCOC(=O)C(=CC1=C/C(=C/N(C)C)C(=O)O1)C(=O)OCC` [AGY- 0046293], the IC50 was found to be 90 µM against CD45, 23.2 µM at PTPB, 41.1 µM against PTPIB and 4.18 µM at YOP51.
